Values quoted from earlier work, collected in publication PMC11317963 (Neural Regeneration Research, 2024).

Key:
[1] = ref Diana et al., 2008; Finetti et al., 2012
[2] = system: permanent middle cerebral artery occlusion model; conditions: compared with VEGF; ref Pignataro et al., 2015
[3] = ref Zhang et al., 2000

Row | Substance | thermal stability [1] | vessel permeability [2] | half-life in vivo [3]
1 | KLTWQELYQLKYKGI [QK] | relatively high thermal stability | decrease vessel permeability compared with VEGF | 
2 | VEGF |  |  | relatively short
